In patent US8669254B2, “Pyridine, pyridazine, pyrimidine or pyrazine carboxamides as HDL-cholesterol raising agents” (Hoffman-La Roche Inc., priority 2010, dated 2014):
Read-outs that look alike come from different tables or passages of the source.

How the values were obtained:
[1] = target: T1, human CB1 receptor (Homo sapiens, UniProt P21554); assay: CB1 receptor affinity ([3H]-CP-55,940 displacement); assay type: binding; details: read-out: CB1 receptor affinity [% inhibition @ 10 μM]
T1 construct: expressed in transfected cells; host or cells: human embryonic kidney (HEK) cells, Semliki Forest Virus system, membrane preparation
T1 sequence (P21554 whole entry): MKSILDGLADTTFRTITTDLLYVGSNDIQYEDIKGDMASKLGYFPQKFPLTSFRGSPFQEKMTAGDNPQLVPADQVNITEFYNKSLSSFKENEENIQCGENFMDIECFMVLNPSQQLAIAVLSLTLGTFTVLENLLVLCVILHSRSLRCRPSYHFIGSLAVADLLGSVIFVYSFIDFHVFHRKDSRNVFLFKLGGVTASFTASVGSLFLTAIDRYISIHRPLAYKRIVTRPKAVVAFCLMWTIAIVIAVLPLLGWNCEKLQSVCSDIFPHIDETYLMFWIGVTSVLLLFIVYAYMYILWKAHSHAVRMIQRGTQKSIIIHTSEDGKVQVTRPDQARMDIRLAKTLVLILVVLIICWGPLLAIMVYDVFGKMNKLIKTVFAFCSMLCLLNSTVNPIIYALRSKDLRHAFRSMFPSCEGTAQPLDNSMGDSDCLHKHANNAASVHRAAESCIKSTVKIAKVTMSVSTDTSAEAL
Method: (§1) The affinity of the compounds of the invention for cannabinoid receptors was determined using membrane preparations of human embryonic kidney (HEK) cells in which the human CB1 receptor is transiently transfected using a Semliki Forest Virus system in conjunction with [3H]-CP-55,940 as radioligand. After incubation of freshly prepared cell membrane preparation with the [^3H]-ligand, with or without addition of compounds of the invention, separation of bound and free ligand was performed by filtration over glass fiber filters. Radioactivity on the filter was measured by scintillation counting.
(§2) The ability of the compounds to displace the radioligand [^3H]-CP-55,940 was measured at a concentration of 10 μM and values provided as [% inhibition @ 10 μM] both for the CB 1 and CB2 receptor assay, The lower % inhibition is, the lower the likelihood of side effects based on CB1 or CB2 receptor inhibition is.

[2] = tested on: ABCA1 protein; assay: Detection of upregulation of ABCA1 protein in cells (ApoA-I binding, high content image analysis); assay type: cell-based; details: THP-1 macrophage cells; for % increase of ABCA1 at 3 μM: compound at 3 μM, 24 hrs; for EC50: ABCA1 protein detection assay
Method: The ability of compounds of the invention to increase the level of ABCA1 protein is determined in replicate cultures of THP-1 macrophage cells in 96-well microplates. Cells are plated at an initial density of 100,000 cells/well in 100 μl medium and differentiated to adherent macrophages with the addition of PMA (100 nM) for 68 hrs in 10% fetal bovine serum, 3 μl/L of b-mercaptoethanol, RPMI-1640 medium. Then, cells are incubated with RPMI-1640 medium containing 1% FCS, 25 μg/ml acetylated LDL, for 24 hours at 37°. Following incubation with acetylated LDL, cells are washed twice with 50 μl PBS and incubated with 100 μl of RPMI-1640 medium containing the compound of interest solubilized in DMSO for an additional 24 hrs. The final DMSO concentration in presence of cells is maintained at 0.5%. ApoA-I binding assay using High Content Image Analysis is initiated by replacing with fresh medium, RPMI without Phenol Red, 0.2% BSA containing AlexaFluor®647 labeled ApoA-I for 2 h/37° C./5% CO2. Then, cells are fixed with 4% Formaldehyde in PBS (15 min, RT). Following Nuclei are stained with Hoechst solution (3 μM PBS) and Cytoplasm with Cell Mask Blue (2 μg/ml PBS), 15 min, RT. Finally the stained cells are fixed with a second round of formaldehyde treatment. Fixed stained cells are washed and kept in PBS at 4° C. and can be read immediately until one month after preparation.
The Alexa Fluor 647-labeled Apolipoprotein A-I (20 nM) was prepared as follows: Human recombinant Apolipoprotein A-I (ApoA-I) was exchanged to a buffer of 0.02 M NaHCO3 at pH 8.2 on an NAP desalting column (GE Healthcare) and brought to a concentration to 40 μM (1.13 mg/ml) by adjustment with the same buffer. The ApoA-I was fluorescently labeled by incubation with Alexa Fluor carboxylic acid succimidyl ester (Alexa Fluor 647, Invitrogen A-20006) at a 2:1 molar ratio (Alexa to ApoA-I) for 1 h under shaking at RT). The remaining unconjugated label was removed by buffer exchange to 0.02M NaHCO3 at pH 8.2.
Imaging and data collection were performed on an OPERA confocal microplate imaging reader using a 20× water immersion objective and UV360 or 405 laser to identify the cell nuclei and a 635 laser to identify the fluorescent ApoA-I. Eight fields of view are captured per well. Image capture and analysis was performed with the Acapella software. Background fluorescence detected in control wells without ApoA-I was subtracted.
Using XLfit3 program (ID Business Solutions Ltd. UK), the model 205 for Dose Response One Site is used to calculate the EC50 values. […] Particularly, the compounds of the present invention have EC50 values in a range of 0.1 μM to 3 μM.

[3] = target: T2, human CB2 receptor (Homo sapiens, UniProt P34972); assay: CB2 receptor affinity ([3H]-CP-55,940 displacement); assay type: binding; details: HEK cell membranes, radioligand [3H]-CP-55,940
T2 construct: expressed in transfected cells; host or cells: human embryonic kidney (HEK) cells, Semliki Forest Virus system, membrane preparation
T2 sequence (P34972 whole entry): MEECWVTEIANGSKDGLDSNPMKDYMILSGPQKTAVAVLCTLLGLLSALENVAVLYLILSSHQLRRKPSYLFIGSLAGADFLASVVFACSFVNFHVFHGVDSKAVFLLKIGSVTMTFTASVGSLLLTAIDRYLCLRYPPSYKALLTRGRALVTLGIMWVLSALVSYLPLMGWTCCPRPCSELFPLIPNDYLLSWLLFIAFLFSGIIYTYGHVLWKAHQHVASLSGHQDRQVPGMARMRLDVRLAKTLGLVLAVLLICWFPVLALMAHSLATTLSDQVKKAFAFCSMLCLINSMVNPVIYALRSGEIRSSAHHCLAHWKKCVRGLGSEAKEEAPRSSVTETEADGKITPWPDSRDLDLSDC
Method: as §1, with “cannabinoid CB2” for “cannabinoid”, “CB2” for “CB1”, “[^3H]-CP-55,940” for “[3H]-CP-55,940”
as §2

[4] = 10 μM, HEK cell membranes, radioligand [3H]-CP-55,940

Question: With CO/N=C(/CNC(=O)c1cnc(O[C@@H](C)C(F)(F)F)c(-c2ccc(Cl)cc2)c1)C1CC1 [Example 31, 5-(4-Chloro-phenyl)-N-{2-cyclopropyl-2-[(E)-methoxyimino]-ethyl}-6-((S)-2,2,2-trifluoro-1-methyl-ethoxy)-nicotinamide] as the molecule, how does the inhibition at 10 µM [1] read?
Answer: The inhibition at 10 µM was 39.3%.

Question: What about the melting point of the same molecule?
Answer: The melting point was 103 to 106 °C.

Question: And the “% increase of ABCA1 at 3 μM” value [2]?
Answer: The value was 74.5% @ 3 μM.

Question: And the inhibition at 10 µM [3]?
Answer: The inhibition at 10 µM was 3.6%.

Question: What does the source list for CO/N=C(/CNC(=O)c1cnc(O[C@@H](C)C(F)(F)F)c(-c2ccc(Cl)cc2)n1)C1CC1 [Example 26, (S,E)-6-(4-Chlorophenyl)-N-(2-cyclopropyl-2-(methoxyimino)ethyl)-5-(1,1,1-trifluoropropan-2-yloxy)pyrazine-2-carboxamide]?
Answer: inhibition at 10 µM [1, 4]: 13%; melting point: 149 to 152 °C; EC50 [2]: 1120 nM; % increase of ABCA1 at 3 μM [2]: 79% @ 3 μM; inhibition at 10 µM [3]: 9%

Question: What does the source list for CO/N=C(/CNC(=O)c1cnc(OCC(F)(F)F)c(-c2ccc(Cl)c(Cl)c2)c1)C(F)(F)F [Example 15, 5-(3,4-Dichloro-phenyl)-6-(2,2,2-trifluoro-ethoxy)-N-{3,3,3-trifluoro-2-[(Z)-methoxyimino]-propyl}-nicotinamide]?
Answer: inhibition at 10 µM [1, 4]: 32%; melting point: 124 to 126 °C; % increase of ABCA1 at 3 μM [2]: 50.5% @ 3 μM; inhibition at 10 µM [3]: 23.2%

Question: For CO/N=C1\CCCC[C@@H]1NC(=O)c1cc(-c2ccc(Cl)cc2)c(O[C@@H](C)C(F)(F)F)cn1 [Example 29, 4-(4-Chlorophenyl)-N-((S,E)-2-(methoxyimino)cyclohexyl)-5-((S)-1,1,1-trifluoropropan-2-yloxy)picolinamide], which inhibition at 10 µM [1, 4] is on record?
Answer: Its inhibition at 10 µM is 35.5%.

Question: And the melting point?
Answer: Its melting point is 123 to 125 °C.

Question: And the “% increase of ABCA1 at 3 μM” value [2]?
Answer: The value was 53.4% @ 3 μM.

Question: What about the inhibition at 10 µM [3] of the same molecule?
Answer: Its inhibition at 10 µM is 33%.

Question: For CO/N=C(\CNC(=O)c1ncc(OCC2CC2)c(-c2ccc(Cl)cc2)n1)C1CC1 [Example 19, 4-(4-Chloro-phenyl)-5-cyclopropylmethoxy-pyrimidine-2-carboxylic acid {2-cyclopropyl-2-[(Z)-methoxyimino]-ethyl}-amide], which inhibition at 10 µM [1, 4] is on record?
Answer: The inhibition at 10 µM was 28%.

Question: What about the “% increase of ABCA1 at 3 μM” value [2] of the same molecule?
Answer: Its value is 84.2% @ 3 μM.

Question: And the inhibition at 10 µM [3]?
Answer: Its inhibition at 10 µM is 63.8%.

Question: What does the source list for CO/N=C1\CCCC[C@H]1NC(=O)c1cc(-c2ccc(Cl)cc2)c(OCC(F)(F)F)nn1 [Example 16, 5-(4-Chloro-phenyl)-6-(2,2,2-trifluoro-ethoxy)-pyridazine-3-carboxylic acid {(R)-2-[(E)-methoxyimino]-cyclohexyl}-amide]?
Answer: inhibition at 10 µM [1, 4]: 25.4%; EC50 [2]: 10000 nM; % increase of ABCA1 at 3 μM [2]: 55.3% @ 3 μM; inhibition at 10 µM [3]: 16.6%

Question: For CO/N=C1\CCCC[C@@H]1NC(=O)c1cc(-c2ccc(Cl)cc2)c(OCC(F)(F)F)nn1 [Example 17, 5-(4-Chloro-phenyl)-6-(2,2,2-trifluoro-ethoxy)-pyridazine-3-carboxylic acid {(S)-2-[(E)-methoxyimino]-cyclohexyl}-amide], which inhibition at 10 µM [1, 4] is on record?
Answer: Its inhibition at 10 µM is 16.6%.

Question: And the EC50 [2]?
Answer: Its EC50 is 2630 nM.

Question: And the “% increase of ABCA1 at 3 μM” value [2]?
Answer: Its value is 76.5% @ 3 μM.

Question: What about the inhibition at 10 µM [3] of the same molecule?
Answer: The inhibition at 10 µM was 13.6%.

Question: Which inhibition at 10 µM [1, 4] does the source give for O=C(NC/C(=N/OCC(F)(F)F)C1CC1)c1cnc(OCC(F)(F)F)c(-c2ccc(Cl)c(Cl)c2)c1 [Example 22, N-{2-Cyclopropyl-2-[(E/Z)-2,2,2-trifluoro-ethoxyimino]-ethyl}-5-(3,4-dichloro-phenyl)-6-(2,2,2-trifluoro-ethoxy)-nicotinamide] here?
Answer: Its inhibition at 10 µM is 36%.

Question: And the “% increase of ABCA1 at 3 μM” value [2]?
Answer: Its value is 74% @ 3 μM.

Question: What about the inhibition at 10 µM [3] of the same molecule?
Answer: The inhibition at 10 µM was 9%.

Question: For O=C(N[C@H]1CCCC/C1=N\OCC(F)(F)F)c1cnc(OCC2CC2)c(-c2ccc(Cl)cc2)c1 [Example 4, 5-(4-Chloro-phenyl)-6-cyclopropylmethoxy-N-{(S)-2-[(E)-2,2,2-trifluoro-ethoxyimino]-cyclohexyl}-nicotinamide], which inhibition at 10 µM [1, 4] is on record?
Answer: The inhibition at 10 µM was 48.5%.

Question: What about the “% increase of ABCA1 at 3 μM” value [2] of the same molecule?
Answer: The value was 90.4% @ 3 μM.

Question: And the inhibition at 10 µM [3]?
Answer: The inhibition at 10 µM was 8.91%.
